Measured values reported in patent US4794114A, “Inhibition of interleukin-1 production by monocytes and/or macrophages” (SmithKline Beckman Corporation, priority 1987, dated 1988).
Read-outs that look alike come from different tables or passages of the source.

Tests used:
[1] = test system: murine model of endotoxin shock; settings: Hagmann et al., 1982; cited from earlier work
[2] = test system: IL-1 production by human monocytes; assay: in vitro IL-1 production by LPS-stimulated human peripheral blood monocytes (EL-4 readout); format: cell-based
Method: The effects of antiinflammatory/antiarthritic drugs of different classes, including Compound 1 on the in vitro production of IL-1 by human monocytes was examined.
(§1) Bacterial lipopolysaccharide (LPS) was used to induce IL-1 production by human peripheral blood monocytes. IL-1 activity was measured by its ability to stimulate a Interleukin 2 (IL-2) producing cell line (EL-4) to secrete IL-2, in concert with A23187 ionophore, according to the method of Simon et al., J. Immunol. Methods, 84, 85, (1985). Human peripheral blood monocytes were isolated and purified from either fresh blood preparations from volunteer donors, or from blood Bank buffy coats, according to the procedure of Colotta et al., J. Immunol., 132, 936 (1984). 1×10^6 of such monocytes are plated in 24-well plates at a concentration of 2 million/ml per well. The cells were allowed to adhere for 2 hours, after which time non-adherent cells were removed by gentle washing. Test compounds were then added to the cells for 1 hour (hr) before the addition of lipopolysaccharide (10 ng/ml unless otherwise noted), and the cultures were incubated at 37° C. for an additional 24 hours. At the end of the incubation period, culture supernatants were removed and clarified of cells and all debris. Culture supernatants were immediately assayed for IL-1 biological activity as well as prostaglandin and/or leukotriene concentrations by radioimmunoassay.
^(a) All compounds, except chloroquine, were dissolved in absolute
ethanol at 10^-2 M, which was subsequently diluted further in tissue
assay system at doses tested. Furthermore, test samples were dialyzed
prior to testing in the IL1 assay.
In order to elucidate the mechanism by which Compound 1 mediates its anti-inflammatory activity, the ability of this compound and two closely related analog metabolites, (i.e., the analogs of Compound 1 wherein X is S(0)n and n is 1 or 2) to inhibit human IL-1 production in vitro was evaluated according to the method of Example 1. Briefly, 1×10^6 human peripheral blood monocytes were plated in 24-well plates and allowed to adhere for 1 hr at 37° C. The above compounds were added to a final concentration of 10^-5 M to 10^-8 M. The monocytes were stimulated to produce IL-1 with 1 ng/ml LPS after a 1 hr pretreatment of the cells with the respective compounds.
The inhibitory effect of additional compounds of Formula (I) on the in vitro production of IL-1 production of IL-1 by human monocytes was determined according to the procedure of Examples 1 and 2.

[3] = test system: PGE2; assay: in vitro prostaglandin (PGE2) synthesis by LPS-stimulated human monocytes, RIA; format: cell-based; settings: for inhibition at 0.1 µM / inhibition at 1 µM / inhibition at 10 µM: Homo sapiens, Monocyte, read-out: % Inhibition PGE2
Method: as §1
^(c) PGE2 was assayed using an RIA kit.

[4] = test system: IL-1 production by human monocytes; settings: Lipsky, Amer. J. Med. 75, Supp. 1A, 19 (1983); cited from earlier work
[5] = test system: endotoxin shock in C57B1/6 mice; format: in vivo, mouse; settings: mouse, in vivo
Method: Mice are very resistant to the lethal effects of bacterial lipopolysaccharides (LPS). D-Galactosamine (D-GALN) induces a high degree of sensitization to the lethal effects of LPS in mice and other experimental animals. [See, Galanos et al., Proc. Natl. Acad Sci. USA., 76, 5939 (1979)]. In mice, depending on the strain and age, the sensitivity to endotoxin can be increased many thousand-fold.
A number of preliminary experiments were carried out to establish this model of lethal endotoxin shock.

[6] = immunosuppressive effect
[7] = test system: alpha interferon; assay: alpha interferon (other inducible proteins) production; format: cell-based
[8] = test system: IL-1 production by splenic adherent cells; assay: adjuvant-induced arthritis in the rat: IL-1 production by LPS-stimulated splenic adherent cells; format: in vivo; settings: for IL-1 Production (splenic adherent cells), % normal control: mg/kg: Compound 1 60, indomethacin 2.0, prednisolone 10, methotrexate 0.3, D-penicillamine 50
Method: (§2) Adjuvant-induced arthritis in the rat is a model of systemic inflammation with characteristics similar to rheumatoid arthritis in man. […] This model was employed to assess the effect of Compound 1 in vivo on this elevated IL-1 production. Briefly, rats were injected on day 0 with Freund's complete adjuvant in the right hind leg. Drugs were prepared as a suspension in tragacanth and administered daily per os either prophylactically (days 1 to 16) or therapeutically in a short-term modality (days 14 to 16). In all cases, final administration of drug occurred at 3 hours prior to sacrifice. Spleens were removed from these rats and the adherent cells were assessed for their ability to produce IL-1 in vitro in response to stimulation by LPS.
(§3) PROPHYLACTIC TREATMENT: Drugs were administered daily p.o. as a suspensio
(§4) in tragacanth from day 1 to day 16. Final dose given 3 hrs before
(§5) TREATMENT: Drugs were administered daily p.o. as above from
(§6) day 14 to day 16. Final dose given 3 hrs before sacrifice.
(§7) ***P < 0.01 Indomethacin 2.0 mg/kg
(§8) **P < 0.05 Compound 1 60 mg/kg
(§9) *P < 0.10 Prednisolone 10 mg/kg
(§10) D-Penicillamine 50 mg/kg

[9] = test system: splenic adherent cells; assay: adjuvant-induced arthritis in the rat: % splenic adherent cells; format: in vivo; settings: mg/kg: Compound 1 60, indomethacin 2.0, prednisolone 10, methotrexate 0.3, D-penicillamine 50
Method: as §2, §3, §4, §5, §6, §7, §8, §9, §10

[10] = test system: human peripheral blood lymphocytes; assay: lectin-stimulated mitogenesis of human peripheral blood lymphocytes; format: cell-based
[11] = test system: IL-2; assay: IL-2 production or response; format: cell-based
[12] = test system: A375 melanoma cells; assay: tumoricidal activity of LPS-treated human monocytes in the kill of A375 melanoma cells; format: cell-based; settings: 10^-5 to 10^-8 M
[13] = test system: adjuvant-induced arthritis in the rat; assay: adjuvant-induced arthritis in the rat: right leg paw edema; format: in vivo; settings: mg/kg: Compound 1 60, indomethacin 2.0, prednisolone 10, methotrexate 0.3, D-penicillamine 50
Method: as §2, §3, §4, §5, §6, §7, §8, §9, §10

[14] = test system: EL-4/CTLL assay; assay: direct effect on IL-1 standard in EL-4/CTLL readout assay; format: cell-based
Method: as §1
Inhibition of IL-1 production by Compound 1 is not due to a carryover effect of the drug on the cells sed in the IL-1 readout assay. […]

[15] = test system: monocytes; assay: in vitro; format: cell-based, human
Method: as §1
^(b) At doses at or above 10^-5 M, this compound exerted some

[16] = Homo sapiens, Monocyte, read-out: % Inhibition IL-1
[17] = prophylactic, daily p.o. days 1-16
[18] = therapeutic, daily p.o. days 14-16

In the case of Clc1ccc(C(c2ccc(Cl)cc2)n2cc[n+](CC(OCc3ccc(Cl)cc3Cl)c3ccc(Cl)cc3Cl)c2)cc1 (stereo not shown) [calmidazolium], the “prevention of endotoxin lethality” value [1] is listed as “prevented endotoxin lethality”.
In the case of CCN(CC)CCCC(C)Nc1ccnc2cc(Cl)ccc12 (stereo not shown) [Chloroquine], the inhibition at 0.1 µM [2, 16] is reported as 36%, the inhibition at 1 µM [2, 16] is reported as 46% and the inhibition at 10 µM [2, 16] is reported as 89%. The “inhibition of IL-1 production” value ([2]; doses one or two logs higher than Compound 1) was “only marginally active”, the inhibition at 0.1 µM [3] was 0% and the inhibition at 1 µM [3] was 0%. The inhibition at 10 µM [3] was 84% and the “inhibition of IL-1 production, literature” value [4] was “inhibit IL-1 production”.
For Fc1ccc(-c2nc3n(c2-c2ccncc2)CCS3)cc1 [Compound 1], the “protection from lethal effects of LPS/GALN” value [5] was “protected the animals from the lethal effects of LPS/GALN”, the “immunosuppressive effect” value [6] was “not immunosuppressive” and the “effect on other inducible proteins such as alpha interferon” value [7] was “not effected”. The “decrease in IL-1 production” value ([8]; prophylactic administration) was “more dramatic decrease in IL-1 production than indomethacin which resulted in nearly complete normalization of this parameter”, the “IL-1 Production (splenic adherent cells), % normal control” value [8, 17] was 139 ± 28 % normal control and the “IL-1 Production (splenic adherent cells), % normal control” value [8, 18] was 392 ± 129 % normal control. For the same compound, the “effect in adjuvant arthritic rats” value ([8]; therapeutic, short-term treatment) was “no effect”, the “% Adherent Cells (splenic), % normal control” value [9, 17] was 98 ± 29 % normal control and the “% Adherent Cells (splenic), % normal control” value [9, 18] was 216 ± 137 % normal control. The “inhibition of lectin-stimulated mitogenesis” value [10] was “does not inhibit lectin-stimulated mitogenesis”, the “dose dependence of IL-1 production inhibition” value [2] was “dose dependent” and the “inhibition of IL-1 production” value [2] was “inhibits IL-1 production”. For the same compound, the “relative potency against the two analogs” value ([2]; 1 ng/ml LPS) was “slightly more potent than the two analogs tested”, the IC50 ([2]; Homo sapiens, Monocyte, 1 ng/ml LPS, 1 hr pretreatment) was 250 nM and the inhibition at 10 µM ([2]; Homo sapiens, Monocyte, 10^-5 M, read-out: % Inhibition IL-1) was 99%. The inhibition at 1 µM ([2]; Homo sapiens, Monocyte, 10^-6 M, wide range of LPS, read-out: inhibition of IL-1 production) was about 80%, the inhibition at 1 µM ([2]; Homo sapiens, Monocyte, 10^-6 M, Table 3, read-out: % Inhibition @ 10^-6 M) was 70% and the inhibition at 1 µM ([2]; Homo sapiens, Monocyte, 10^-6 M, read-out: % Inhibition IL-1) was 96%. The inhibition at 0.1 µM ([2]; Homo sapiens, Monocyte, 10^-7 M, wide range of LPS, read-out: inhibition of IL-1 production) was about 40%, the inhibition at 0.1 µM ([2]; Homo sapiens, Monocyte, 10^-7 M, read-out: % Inhibition IL-1) was 88% and the “inhibition of IL-1 production” value ([2]; submicromolar range (10^-7 M)) was “greater than 80%”. For the same compound, the “inhibition of IL-1 production induced by a variety of activators” value ([2]; variety of activators) was “inhibits IL-1 production induced by a variety of activators”, the “inhibition of IL-2 production” value ([11]; IL-2 production) was “does not inhibit either IL-2 production or response” and the “inhibition of IL-2 response” value ([11]; IL-2 response) was “does not inhibit either IL-2 production or response”. The inhibition at 10 µM ([3]; 10^-5 M) was 99%, the inhibition at 1 µM ([3]; 10^-6 M) was 94% and the inhibition at 0.1 µM ([3]; 10^-7 M) was 79%. For the same compound, the “inhibition of prostaglandin synthesis” value ([3]; submicromolar range (10^-7 M)) was “greater than 80%”, the “effect on monocyte tumoricidal activity” value [12] was “did not effect that biological activity” and the “Right leg paw edema, % normal control” value [13, 17] was 134 ± 9 % normal control. The “Right leg paw edema, % normal control” value [13, 18] was 159 ± 7 % normal control, the “effect on the IL-1 assay system” value ([14]; 10^-5 or higher) was “had an effect on the assay system” and the “direct effect on the IL-1 assay” value ([14]; lower doses / doses tested) was “no direct effect on the IL-1 assay”. The “nonspecific toxic effect on other functions of activated monocytes” value [15] was “does not exert a nonspecific toxic effect on other functions of activated monocytes”.
